Laboratory results reported in US20070135406A1, “Diazabicyclononene and tetrahydropyridine derivatives with a new side-chain” (priority 2003, published 2007).

Molecular target: T1, human recombinant renin (Homo sapiens, UniProt P00797)
T1 sequence (P00797 67-406): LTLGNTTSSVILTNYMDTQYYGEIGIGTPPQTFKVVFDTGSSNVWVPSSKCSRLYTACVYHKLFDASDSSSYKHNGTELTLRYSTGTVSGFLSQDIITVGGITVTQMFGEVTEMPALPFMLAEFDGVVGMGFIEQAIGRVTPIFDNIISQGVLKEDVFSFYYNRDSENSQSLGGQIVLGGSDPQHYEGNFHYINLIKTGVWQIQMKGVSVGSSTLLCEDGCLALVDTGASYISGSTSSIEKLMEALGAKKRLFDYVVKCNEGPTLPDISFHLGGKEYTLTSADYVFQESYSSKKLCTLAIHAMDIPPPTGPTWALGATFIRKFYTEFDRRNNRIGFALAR
Experiment: Inhibition of human recombinant renin (enzymatic in vitro assay, Ang I detected by EIA)
Type: biochemical
Conditions: human recombinant renin 0.16 ng/mL, synthetic human angiotensin(1-14) 0.5 μM, 37° C. for 3 h
Procedure: Inhibition of Human Recombinant Renin by the Compounds of the Invention The enzymatic in vitro assay was performed in 384well polypropylene plates (Nunc). The assay buffer consisted of 10 mM PBS (Gibco BRL) including 1 mM EDTA and 0.1% BSA. The incubates were composed of 50 μL per well of an enzyme mix and 2.5 μL of renin inhibitors in DMSO. The enzyme mix was premixed at 4° C. and consists of the following components: • human recombinant renin (0.16 ng/mL).synthetic human angiotensin(1-14) (0.5 μM) • hydroxyquinoline sulfate (1 mM) The mixtures were then incubated at 37° C. for 3 h. To determine the enzymatic activity and its inhibition, the accumulated Ang I was detected by an enzyme immunoassay (EIA) in 384well plates (Nunc). 5 μL of the incubates or standards were transferred to immuno plates which were previously coated with a covalent complex of Ang I and bovine serum albumin (Ang I—BSA). […] of Ang I-antibodies in essaybuffer above including 0.01% Tween 20 were added and a primary incubation made at 4° C. overnight The plates were washed 3 times with PBS including 0.01% Tween 20, and then incubated for 2 h at rt with an antirabbit-peroxidase coupled antibody (WA 934, Amersham).

IC50: 0.79 nM
SMILES: COCCCOc1nccc(CN(C(=O)C2=C(c3ccc(CCCOc4c(F)ccc(F)c4Cl)cc3)C[C@@H]3CC[C@H]2N3)C2CC2)c1C (racemic) [Example 1, (rac.)-(1R*,5S*)-3-{4-[3-(2-Chloro-3,6-difluorophenoxy)propyl]phenyl}-8-azabicyclo[3.2.1]oct-2-ene-2-carboxylic acid cyclopropyl-[2-(3-methoxy-propoxy)-3-methylpyridin-4-ylmethyl]amide]
